Results on eleven molecules are retold here after publication PMC7321402, “Insights on the Extraction Performance of Alkanediols and Glycerol: Using Juglans regia L. Leaves as a Source of Bioactive Compounds” (Molecules, 2020).

By GI50 is commonly meant the concentration giving 50% growth inhibition. Lower therefore signals greater sensitivity of the cells.

The subject of data set [1] is non-tumor PLP2 cells (porcine liver primary cells). The data set can be described thus: Sulforhodamine B growth inhibition assay, PLP2 (hepatotoxicity). As for the experimental part:
(§1) J. regia leaf extracts (30 mg/mL) and solvents were studied regarding their inhibitory growth activity of the HeLa (cervical carcinoma) cell line and the non-tumor PLP2 cells (porcine liver primary cells) by using a sulforhodamine B assay. The extracts were diluted to obtain a stock solution of 10 mg/mL, and the concentration of the working solutions ranged from 500 to 7.8 µg/mL, while the concentration of the solvents ranged from 4% to 0.0156%. Ellipticine was used as positive control. The experimental protocol related to the cell cultures was previously described by Barros et al. and Abreu et al..

Data set [2] deals with HeLa (cervical carcinoma) cell line. The experiment in a line: Sulforhodamine B growth inhibition assay, HeLa. It is filed as cell-based, human. The method, then: as §1
The nature of data set [3]: Sulforhodamine B growth inhibition assay, PLP2 (hepatotoxicity). Particulars: pig, PLP2 cells (porcine liver primary cells, non-tumor). As for the experimental part:
as §1

Where [4] appears, read: solvent without extract, range 4% to 0.0156%, mean ± SD.

≈ marks a conversion by molar mass, not a printed value. Where “and” joins values, the source holds several entries; their conditions need not be identical. Equal entries are not always repeated. Where two headings read alike, the source gives them in different places. A value given as a limit tells only on which side of the number the result lay.

Turning to `CCO` [Ethanol, ethanol], the “GI50 PLP2, Solvent” value in data set [1] is reported as >4 %, v/v. In data set [2] (setting [4]), the “GI50 HeLa, Solvent” value is >4 %, v/v.
With `CC(O)CO` (stereo not shown) [1,2-propanediol], the “GI50 PLP2, Solvent” value in data set [1] (setting [4]) is recorded as >4 %, v/v. In data set [2] (setting [4]), the “GI50 HeLa, Solvent” value is listed as >4 %, v/v.
Take `CCCCC(O)CO` (stereo not shown) [1,2-hexanediol]: in data set [1] (setting [4]), the “GI50 PLP2, Solvent” value is 0.285 ± 0.005 %, v/v and 0.285 ± 0.005c %, v/v. Also, the “GI50 HeLa, Solvent” value in data set [2] (setting [4]) is 0.36 ± 0.02 %, v/v and 0.36 ± 0.02c %, v/v.
`OCCCCCO` [1,5-pentanediol]: in data set [1] (pig), the “GI50 PLP2, Solvent” value is reported as 0.59 ± 0.02b %, v/v. Moreover, the “GI50 HeLa, Solvent” value in data set [2] (setting [4]) is given as 0.49 ± 0.02b %, v/v.
Turning to `CCCC(O)CO` (stereo not shown) [1,2-pentanediol], in data set [1] (setting [4]), the “GI50 PLP2, Solvent” value is listed as 0.89 ± 0.04a %, v/v. Besides, in data set [2] (setting [4]), the “GI50 HeLa, Solvent” value is recorded as 0.63 ± 0.04a %, v/v.
Turning to `CC(O)CCO` (stereo not shown) [1,3-butanediol], the “GI50 PLP2, Solvent” value in data set [1] (setting [4]) is recorded as >4 %, v/v. Further, the “GI50 HeLa, Solvent” value in data set [2] (setting [4]) is given as >4 %, v/v.
On to `OCCO` [1,2-ethanediol], for which the “GI50 PLP2, Solvent” value in data set [1] is given as >4 %, v/v. Further, in data set [2], the “GI50 HeLa, Solvent” value is listed as >4 %, v/v.
Turning to `Cc1c2ccncc2c(C)c2c1[nH]c1ccccc12` [Ellipticine, reference compound], the GI50 is 2.3 µg/mL (≈ 9.34 µM) in data set [3] and 1 ± 0.1 µg/mL (≈ 4.06 µM) in data set [2] (Homo sapiens, HeLa, positive control, mean ± SD).
Regarding `OCC(O)CO` [Glycerol, glycerol], in data set [1] (pig), the “GI50 PLP2, Solvent” value is recorded as >4 %, v/v. The “GI50 HeLa, Solvent” value in data set [2] (setting [4]) is >4 %, v/v.
With `OCCCO` [1,3-propanediol], in data set [1] (setting [4]), the “GI50 PLP2, Solvent” value was >4 %, v/v. For the same molecule, the “GI50 HeLa, Solvent” value in data set [2] (setting [4]) is on record as >4 %, v/v.
Turning to `O` [Water, water], the “GI50 PLP2, Solvent” value in data set [1] was >4 %, v/v. Also, in data set [2] (setting [4]), the “GI50 HeLa, Solvent” value is >4 %, v/v.
